Columns and labels:
[1] = In-vitro deposition on skin substitute after rinse-off (GC of extract); settings: for In-vitro deposition of Isosorbide monooleate on the skin substitute per area: after rinse with water
Procedure: (§1) For measuring the deposition of isosorbide monooleate on a substrate a formulation containing isosorbide monooleate was applied to this substrate. Then, the treated area was rinsed with a defined amount of water and extracted with an organic solvent in order to determine the amount of isosorbide monooleate that remained on the surface after the rinse cycle. The extract was analyzed by gas chromatography (GC) and the amount of isosorbide monooleate deposited on the surface was calculated. The measurements were carried out as described in the experimental section of WO 2013/007473.
(§2) As substrate the human skin (forearm) of probands (in-vivo deposition) as well as a skin substitute (collagen layer) (in-vitro deposition) was used. The rinse-cycle (dilution with water) imitated the process of having a shower.
(§3) The following formulations were used for the deposition measurements (in-vitro as well as in-vivo).

[2] = In-vivo deposition on human skin after rinse-off (GC of extract)
Procedure: as §1, §2, §3

In-vitro deposition of Isosorbide monooleate on the skin substitute per area ([1]; 0.5 % by weight isosorbide monooleate in the formulation): 3.7 μg/cm^2
In-vitro deposition of Isosorbide monooleate on the skin substitute per area ([1]; 1 % by weight isosorbide monooleate in the formulation): 7.3 μg/cm^2
In-vitro deposition of Isosorbide monooleate on the skin substitute per area ([1]; 1.5 % by weight isosorbide monooleate in the formulation): 8.6 μg/cm^2
In-vitro deposition of Isosorbide monooleate on the skin substitute per area ([1]; 2 % by weight isosorbide monooleate in the formulation): 15.8 μg/cm^2
In-vivo Deposition of isosorbide monooleate on the skin per area ([2]; 1 % by weight isosorbide monooleate in the formulation, human forearm skin, after rinse-off): 0.7 μg/cm^2
Substance: isosorbide monooleate
Concentration dependency of deposition on the skin/skin substitute ([1]; formulations with 0.5 to 2 % by weight isosorbide monooleate): The higher the amount of isosorbide monooleate in the formulation the higher the deposition rate
Remaining on the skin after rinse-off (in words) ([2]; formulation with 1% by weight isosorbide monooleate): remained in small amounts on the skin after rinse-off

Reference: US20170157012A1, “A Use of Isosorbide Monooleate” (BASF SE, priority 2014, published 2017)
